{
  "source": "patent US8557565B2",
  "about": "“Degradation of polycyclic aromatic hydrocarbons to render them available for biodegradation” (priority 1999, dated 2013)",
  "key": {"[1]": {"experiment": "Solubility and stability of O3 in aqueous and organic solvents", "type": "physicochemical", "conditions": "bipolar solvent versus water or heptane alone", "protocol": "The amount of oil to be employed in the bipolar solution was determined by its solubility in n-heptane and bipolar solvent. With an addition of 2.5 ml of distilled deionized water (about 5%) to a homogenous solution 50 ml of n-heptane and 50 ml of acetic acid, the solution was separated into two distinct phases: the n-heptane containing PAHs and other hydrophobic intermediates, and acetic acid phase (95% of acetic acid/5% DD water) containing the hydrophilic byproducts. In this example, about 480 mg/L of oil in the bipolar solvent was ozonated for different durations and the solution contents were analyzed accordingly. Both byproducts in the n-heptane phase and in the 95% acetic acid phase were analyzed by GC/FID, GC/FPD, and GC/MS after the separation. Ozone stability in different solvents: bipolar solvent, n-heptane, 95% acetic acid/5% DD water, and pure acetic acid were also tested by stopping after 20 minutes of ozonation and monitoring the ozone concentration immediately after.\nOzone was generated by an ozone generator (Model T-816, Polymetrics Corp.) from dry and filtered air at an applied voltage of 65V an air flow rate of 2 L/min. The concentration of ozone in the bipolar solvent was determined by absorbance at 270 nm with a spectrophotometer (HP 8452 UV-Vis spectrophotometer, Hewlett Packard Co.) using a predetermined extinction coefficient of 1955 M^−1 cm^−1. […]"}, "[2]": {"experiment": "Ozonation reaction kinetics of spilt oil constituents in bipolar solvent", "type": "physicochemical", "conditions": "for tentative estimated pseudo-first-order rate constant k′: ozonation of spilt oil (480 mg/L) in n-heptane/acetic acid 1:1 bipolar solvent, about 20° C.; for behaviour under ozonation in the bipolar solvent: spilt oil constituents", "from_the_text": "In this work example, an innovative treatment is developed for spilt oils from southern Kuwait desert that involves ozonation in a homogeneous solvent system. The solvent is constituted of miscible n-heptane and acetic acid (1:1 by volume), both of that are relatively inexpensive, environmentally benign, and biodegradable. The solvent system allows dissolution of oil in its non-polar heptane constituent, while the hydrophilic acetic acid keeps the progressively more polar intermediates and byproducts being formed from ozonation of oil in solution as the reaction continues. The n-heptane and acetic acid were chosen because of their relatively slow reaction rate with ozone (kO3[M^−1 s^−1] about 10^−3˜1 for alkanes and 3×10^−5 for acetic acid.\nThe amount of oil to be employed in the bipolar solution was determined by its solubility in n-heptane and bipolar solvent.\nThe pseudo-first order rate constants were evaluated by linear regression of all data according to the equations given below. The reaction of ozone with contaminants can be expressed as a second order reaction: −dCA/dt=kCA[O3] (1) where: dCA/dt=rate of reaction of contaminant k=reaction rate constant CA=concentration of contaminant [O3]=concentration of ozone\nIn the present of excess and constant ozone concentration, the rate law for the reaction can be considered as pseudo-first order: −dCA/dt=k′CA (2)\nA glass batch reactor with a working volume of 300 mL was used. Mixing in the reactor was provided by a magnetic mixer operating at 250 rpm. […] Ozone was sparged into the reactor near the bottom through a glass dispersion tube (ACE glass Inc.) Reaction batches were stopped after 0.25, 0.5, 1, 2, 3, 4, 5, 10, 20, 40, 60, 120, and 180 minutes of ozonation. Residual ozone was removed from solution by purging with a gentle N2 stream for 1 min. Samples were kept in 2-mL vials and preserved at 5° C. if necessary prior to GC analysis. Qualitative and quantitative analyses of oil and oxidized oil were performed simultaneously. All samples were concentrated by a gentle stream of N2 gas to best retain the intermediates with lower molecular weights."}, "[3]": {"experiment": "Saturated aqueous solution (dissolution equilibrium in water)", "conditions": "equilibrium overnight, 0.45-μm filtered"}, "[4]": {"experiment": "Mass and COD balance of PAH-packed column fed with ozonated water", "conditions": "pyrene-loaded column, 4 h ozonation"}},
  "data": [
    {"smiles": "O=[O+][O-]", "note": "[Ozone]", "values": [
      {"measurement": "solubility and stability of O3", "setting": "[1]", "value": "higher solubility and stability"}
    ]},
    {"smiles": "CCC(C)CCCC(C)CCCC(C)CCCC(C)C", "note": "(stereo not drawn) [Phytane]", "values": [
      {"measurement": "tentative estimated pseudo-first-order rate constant k′", "setting": "[2]", "value": 0.0178, "unit": "s⁻¹"},
      {"measurement": "tentative estimated pseudo-first-order rate constant k′", "setting": "[2]; listed as phytane", "value": 0.0178, "unit": "s⁻¹"},
      {"measurement": "behaviour under ozonation in the bipolar solvent", "setting": "[2]", "value": "relatively resistant to ozonation"}
    ]},
    {"smiles": "CCCCCCCCCCCCCCCCCCCC", "note": "[nC20, Icosane]", "values": [
      {"measurement": "tentative estimated pseudo-first-order rate constant k′", "setting": "[2]", "value": 0.00198, "unit": "s⁻¹"},
      {"measurement": "tentative estimated pseudo-first-order rate constant k′", "setting": "[2]; listed as n-icosane", "value": 0.00198, "unit": "s⁻¹"},
      {"measurement": "behaviour under ozonation in the bipolar solvent", "setting": "[2]", "value": "relatively resistant to ozonation"}
    ]},
    {"smiles": "c1cc2ccc3cccc4ccc(c1)c2c34", "note": "[Pyrene]", "values": [
      {"measurement": "saturated aqueous solution concentration", "setting": "[3]", "value": 0.13, "unit": "ppm"},
      {"measurement": "total amount degraded", "setting": "[4]", "value": 0.365, "unit": "mmol"}
    ]}
  ]
}
